Source: article PMC11982498 (Redox Biology, 2025)
pIC50: −log10 of the molar value.

Experiments:
APP/PS1 transgenic mice [1] = experiment: Morris water maze (MWM); assay type: in vivo; conditions: B14 10, 20, 40 mg/kg i.p. every other day; vs model group
Source text: Five months old male APP/PS1 mice, weighing 25–33 g, were purchased from Guangdong Medical Laboratory Animal Center and housed in the Laboratory Animal Center of Sun Yat-sen University (Guangzhou, China) for experimentation. All procedures were approved by the Animal Care and Use Committee of Sun Yat-sen University and complied with legal requirements and national guidelines for the care and maintenance of laboratory animals (Approval No. SYSU-IACUC-2024-002032). The mice were housed in a specific pathogen-free environment with a controlled temperature of 22 ± 1 °C and a 12-h dark/light cycle. The mice were fed with a standard diet, and 30 mice were randomly divided into 6 groups (N = 5). Compound B14 was dissolved in saline and administered at doses of 10, 20, or 40 mg/kg. […]
The spatial memory and learning abilities of the mice were assessed using Morris water maze (MWM), novel object recognition (NOR) and nesting experiments (NBT). The anxiety and depressive behaviors were evaluated through the open field test (OFT) and elevated plus maze (EPM). […]
Morris water maze (MWM) system consisted of a heated circular pool, a target platform, and a video capture with analysis system. […] The time taken to find the platform (latency) was recorded. […] The platform was removed, and the mice were monitored for 60 seconds. […]

[2] = tested on: VEGF gene transcription in SH-SY5Y cells; experiment: Real-time RT-PCR in SH-SY5Y cells, VEGF; assay type: cell-based, human
Method: (§1) SH-SY5Y cells were treated with or without B14, and total RNA was subsequently isolated and purified. Reverse transcription was performed using a cDNA synthesis kit. The relative transcription levels of the genes were evaluated through quantitative real-time PCR using the SYBR Green-based method, as described in the Supplementary Date. Details regarding the primer sequences and the raw data can be found in Table S7 and Table S8.
(§2) ^a -∆∆Ct = -[(Ct value of genes in treated sample - Ct value of genes in control) - (Ct value of β-actin in treated sample - Ct value of β-actin in control)]. ^b F: The relative expression fold.
Experiment 1: SH-SY5Y cells were treated with different concentration of B14. The Ct values of BAX, VEGF, CMYC and BCL-2 were obtained.
(§3) Total RNA was extracted from cells and mice liver tissue using RNAiso Plus (Takara, 9109, Japan). Following sample homogenization, chloroform was added, and the solution was allowed to have phase separation into an upper aqueous layer (containing RNA), an interphase, and a lower organic layer (containing DNA and proteins). RNA was precipitated from the aqueous phase using isopropanol, while DNA was precipitated from the aqueous-organic interphase using ethanol. Complementary DNA (cDNA) was synthesized using the One-Step RT-PCR Kit (Takara, Cat#639503, Japan).
(§4) Quantitative real-time polymerase chain reaction (qRT-PCR) was performed using the 2× RealStar SYBR Mixture (GenStar, Cat# A301-10, Guangzhou, China) on a LightCycler 480 II real-time PCR system (Roche, USA). Data were analyzed using the 2^−ΔΔCt method. Actin served as the internal control, and relative mRNA levels were normalized accordingly.

[3] = tested on: bEnd.3 in vitro BBB model; experiment: Measurement of in vitro BBB transport (bEnd.3 transwell); assay type: in vitro ADME
Method: bEnd.3 (10 × 10^4 cells/well) was cultured in the upper chamber of a 12 wells-plate within a transwell system. The transepithelial electrical resistance (TEER) was measured to monitor the tightness of the monolayer, and the monolayer of cells with a minimum of 200 Ω cm^2 was used for further experiments.

HK-2 cells = experiment: MTT cytotoxicity assay, HK-2; assay type: cell-based; conditions: Homo sapiens, incubation for 48 h
Method: SH-SY5Y cells, HepG2 cells, HK-2 cells and HT-22 cells were seeded on 96-well plates (5.0×10^3 per well) with 100 μL of culture medium, and incubated for 12 h at 37 °C in a humidified atmosphere with 5% CO2, and then exposed to various concentrations of B14. After 48 h of treatment at 37 °C in a humidified atmosphere with 5% CO2, 100 μL of 0.5 mg/mL MTT solution was added to each well, and the mixture was further incubated for 4 h. The cells in each well were then treated with DMSO (200 μL for each well), and the culture medium was siphoned off, and the absorbance was recorded at 570 nm. All drug doses were parallel tested in triplicate, and the cytotoxicity was evaluated based on the percentage of cell survival in a dose-dependent manner regarding the negative control. The final IC50 values were determined by using Graph Pad Prism 9.0.

[4] = tested on: BAX gene transcription in SH-SY5Y cells; experiment: Real-time RT-PCR in 25 μM Aβ1-42 cell model, BAX; assay type: cell-based, human
Method: as §1, §2
Experiment 2: The Ct values of BCL-2 and Bax in 25 μM Aβ1-42 model with different concentration of B14.
as §3, §4

APP/PS1 transgenic mice [5] = experiment: TEM of hippocampus microstructure; assay type: in vivo; conditions: vs model group
Source text: Five months old male APP/PS1 mice, weighing 25–33 g, were purchased from Guangdong Medical Laboratory Animal Center and housed in the Laboratory Animal Center of Sun Yat-sen University (Guangzhou, China) for experimentation. All procedures were approved by the Animal Care and Use Committee of Sun Yat-sen University and complied with legal requirements and national guidelines for the care and maintenance of laboratory animals (Approval No. SYSU-IACUC-2024-002032). The mice were housed in a specific pathogen-free environment with a controlled temperature of 22 ± 1 °C and a 12-h dark/light cycle. The mice were fed with a standard diet, and 30 mice were randomly divided into 6 groups (N = 5). Compound B14 was dissolved in saline and administered at doses of 10, 20, or 40 mg/kg. APP/PS1 male mice were grown until 6 months of age, and then injected intraperitoneally with compound B14 every other day for 60 days. Behavioral experiments were then conducted, and tissue specimens were collected for biochemical analysis.
After the behavioral tests, the mice were anesthetized and perfused with 0.1 M pre-cooled phosphate-buffered saline for 5 min, followed by 4 % pre-cooled paraformaldehyde until the mice were stiff. The hippocampi were then extracted and fixed in 3 % pre-cooled glutaraldehyde solution for 6 h, cut into 0.5–1 mm^3 blocks, and post-fixed in 1 % osmium tetroxide for 60 min. […]

O=C(CCN1CCOCC1)Nc1ccc2c(c1)c(=O)c1cc(NC(=O)CCN3CCOCC3)ccc1n2-c1ccc2occc2c1 [Compound B14]
escape latency (MWM) (APP/PS1 transgenic mice [1]): significantly short
number for the mice to cross the platform (MWM) (APP/PS1 transgenic mice [1]): significantly increased
-∆∆Ct, VEGF ([2]; 6.25 μM B14): -0.01
F = 2^-∆∆Ct (relative expression fold), VEGF ([2]; 6.25 μM B14): 1.00
-∆∆Ct, VEGF ([2]; 12.5 μM B14): -0.01
F = 2^-∆∆Ct (relative expression fold), VEGF ([2]; 12.5 μM B14): 1.00
-∆∆Ct, VEGF ([2]; 25 μM B14): -0.03
F = 2^-∆∆Ct (relative expression fold), VEGF ([2]; 25 μM B14): 1.02
Permeability ([3]; 6 h): 45.80%
Permeability ([3]; 24 h): 55.74%
pIC50 (HK-2 cells): < 4.00
-∆∆Ct, BAX ([4]; 25 μM Aβ1-42 + 6.25 μM B14): -1.71
F = 2^-∆∆Ct (relative expression fold), BAX ([4]; 25 μM Aβ1-42 + 6.25 μM B14): 3.23
-∆∆Ct, BAX ([4]; 25 μM Aβ1-42 + 12.5 μM B14): -1.09
F = 2^-∆∆Ct (relative expression fold), BAX ([4]; 25 μM Aβ1-42 + 12.5 μM B14): 2.13
-∆∆Ct, BAX ([4]; 25 μM Aβ1-42 + 25 μM B14): -0.80
F = 2^-∆∆Ct (relative expression fold), BAX ([4]; 25 μM Aβ1-42 + 25 μM B14): 1.71
hippocampal ultrastructure (myelin, synapses, mitochondria; TEM) (APP/PS1 transgenic mice [5]): the degree of mitochondrial damage was much reduced
